{
  "source": "patent US20140363486A1",
  "about": "“METHODS FOR REDUCING OR ALTERING SCAR FORMATION” (Prelief, Inc., priority 2007, published 2014)",
  "key": {"[1]": {"system": "surgical wounds resulting from double knee replacement operations", "assay": "20-patient clinical study, surgical wounds from double knee replacement operations, one leg treated", "type": "in vivo, human", "from_the_text": "FIGS. 2a-2d are black and white photocopies of the color photographs of the knees of another human subject. They received simultaneous bilateral total knee replacements. […] Their left leg (on the right side of the photographs) received no CGP treatment.\nFIGS. 2a, 2b, 2c and 2d, which are black and white photocopies of the color photographs of the knees of one of the 20 human subjects, illustrate the exemplary results from the clinical study. The subject received simultaneous bilateral total knee replacements. […] Their left leg (on the right side of the photographs) received no CGP treatment. Since the commencement of the treatment, 2 ml of Cellerity® 10 lotion was topically applied to the wounds of the knee surgeries twice daily everyday and will continue for 6 consecutive weeks.\nThe untreated leg, in contrast, has deep, wandering scars that are almost chasms in their depth and raw openness.\nIn contrast, SteriStripes were required to be applied to the untreated leg and continued for an additional 6 days.\nIn addition, two subjects of the first five subjects enrolled in the double knee replacement clinical study described above reported they felt “less heat” in their knee incision site treated with CGP than in the untreated knee site during the early weeks of post operative recovery."}, "[2]": {"system": "wounds resulting from an excision surgery to the nose", "assay": "Bilateral surgical nose excision wounds, one wound treated", "type": "in vivo, human", "details": "left-side wound", "from_the_text": "FIGS. 3a-3f illustrate the wound healing effect of a glycerophosphate salt on wounds resulting from an excision surgery, e.g., to the nose. A subject received two surgically inflicted wounds to their nose occasioned by removal of benign growths. […] Per physician's request, Neosporin® was applied to both wounds for one week, and Cellerity® was applied topically to the worst of the two wounds, i.e., the left-side surgical wound (on the right side of the photographs), twice daily. The subject was instructed to return to the laboratory for weekly observations."}, "[3]": {"system": "burn wound to the inner forearm", "assay": "Burn wound to the inner forearm, right side of the wound treated", "type": "in vivo, human", "from_the_text": "Color variations in the background of the photos are an artifact of the time of the day and the location when the pictures were taken.\nFIGS. 4a-4f illustrate the wound healing effect of a glycerophosphate salt on a burn wound to the inner forearm of a human subject. […] The left-side of the wound received no treatment."}, "[4]": {"system": "rhino mucosal passage inflammation", "assay": "Observation of low CGP concentrations on rhino mucosal passage inflammation", "type": "in vivo", "details": "lower concentrations, between 1% and 2% by weight", "from_the_text": "In one embodiment of the present invention, an effective amount of a glycerophosphate salt, in a form of dry powder, granules, or gel is applied directly to the wound via spray, physical transfer by finger or implement to form a coating on the wound. The coating can contain a final local concentration of the glycerophosphate salt of about 0.5%-100% by weight. For example, the final local concentration of the glycerophosphate salt can be about 0.5% to about 5%, about 5% to about 15%, about 15% to about 25%, about 25% to about 35%, about 35% to about 45%, about 45% to about 55%, about 55% to about 65%, about 65% to about 75%, about 75% to about 85%, or about 85% to about 100%, by weight."}},
  "data": [
    {"substance": "calcium glycerophosphate [CGP]", "values": [
      {"measurement": "healing of the surgical wound / surgical scar", "setting": "[1]; Cellerity 10 lotion (10% (w/w) CGP), 2 ml twice daily from approx. 72 hours post operation, up to 14 days post operation, vs untreated leg", "result": "healed dramatically better"},
      {"measurement": "swelling and continuing pale inflammation", "setting": "[1]; Cellerity 10 lotion twice daily, 14 days post operation, observed in the untreated leg", "result": "showed neither"},
      {"measurement": "need for SteriStrips post staple removal", "setting": "[1]; treated leg, the untreated leg required SteriStrips for an additional 6 days", "result": "alleviated the need for application of SteriStrips"},
      {"measurement": "heat felt in the knee incision site", "setting": "[1]; two of the first five subjects enrolled, treated vs untreated knee site, early weeks of post operative recovery", "result": "less heat"},
      {"measurement": "wound appearance", "setting": "[2]; after 6 days of CGP treatment", "result": "appeared less deep than it was a week ago"},
      {"measurement": "wound appearance", "setting": "[2]; after 16 days of CGP treatment", "result": "appeared significantly advanced"},
      {"measurement": "wound appearance", "setting": "[2]; after 30 days of CGP treatment", "result": "healed, fully recolonized with epidermal skin"},
      {"measurement": "wound appearance", "setting": "[2]; after 36 days of CGP treatment", "result": "completely healed"},
      {"measurement": "wound appearance", "setting": "[2]; after 51 days of CGP treatment", "result": "completely healed"},
      {"measurement": "wound healing, subject's report", "setting": "[2]; after one day of treatment, Cellerity (7.5% (w/w) CGP) twice daily, Neosporin on both wounds for one week", "result": "almost immediate apparent change in wound healing in favor of the CGP treated site"},
      {"measurement": "time at which the wound healing improvement effect was first observed", "setting": "[3]; Cellerity lotion (7.5% (w/w) CGP) twice daily for the first three days, from 24 hours post infliction", "result": 3, "unit": "days"},
      {"measurement": "wound status", "setting": "[3]; after 16 days of CGP treatment, 7.5% lotion for three days, then 37% (w/w) CGP paste, the untreated side still had a pinkish color", "result": "completely healed and disappeared"},
      {"measurement": "effect on apparent rhino mucosal passage inflammation", "setting": "[4]", "result": "favorably affect"}
    ]}
  ]
}
